Assay results as given in ChEMBL document CHEMBL1201862, “PubChem BioAssay data set” (2004).
“And” between values parts separate entries of the source, which are not always exact repeats. Equal values may be shown once. The source made the active and inactive calls.

How the values were obtained:
Cytochrome P450 1A2 = target: T1, Cytochrome P450 1A2 (Homo sapiens, UniProt P05177);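 further: PubChem cytochrome P450 panel assay, CYP1A2 panel member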
T1 sequence (P05177 whole entry): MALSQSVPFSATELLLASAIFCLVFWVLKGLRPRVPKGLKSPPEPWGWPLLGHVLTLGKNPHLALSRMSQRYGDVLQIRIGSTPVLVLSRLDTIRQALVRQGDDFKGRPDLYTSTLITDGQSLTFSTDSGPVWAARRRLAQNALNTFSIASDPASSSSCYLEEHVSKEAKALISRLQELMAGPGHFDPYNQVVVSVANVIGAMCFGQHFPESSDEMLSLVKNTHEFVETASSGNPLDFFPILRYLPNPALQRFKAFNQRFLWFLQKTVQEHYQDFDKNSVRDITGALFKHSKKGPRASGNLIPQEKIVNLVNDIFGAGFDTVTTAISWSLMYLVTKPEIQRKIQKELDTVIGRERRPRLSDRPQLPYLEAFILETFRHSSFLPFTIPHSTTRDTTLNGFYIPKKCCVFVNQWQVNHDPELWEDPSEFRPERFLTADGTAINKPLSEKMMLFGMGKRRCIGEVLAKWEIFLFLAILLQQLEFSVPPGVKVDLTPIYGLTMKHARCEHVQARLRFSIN

Cytochrome P450 3A4 = Cytochrome P450 3A4 (Homo sapiens, UniProt P08684);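 further: CYP3A4 tested as one member of a cytochrome P450 panel screen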
H4 = assay: Luminescence Cell-Based Dose Response HTS to Identify Activators of 5'UTR Stem-Loop Driven Prion Protein mRNA Translation in H4 Neuroglioblastoma Cells. [Related pubchem assays: 1829 (Project Summary), 1814 (Primary HTS)]; assay type: functional; details: Homo sapiens
[1] = Luminescence Cell-Based Dose Confirmation HTS to Identify Activators of 5'UTR Stem-Loop Driven Alpha-Synuclein mRNA Translation in H4 Neuroglioblastoma Cells. [Related pubchem assays: 1829 (Project Summary), 1814 (Primary HTS)]; assay type: functional
[2] = Luminescence Cell-Based Dose Response HTS to Identify Activators of Luciferase Translation or Activity in H4 […] Cells. [Related pubchem assays: 1829 (Project Summary), 1814 (Primary HTS)]; assay type: functional
[3] = target: T2, Corticotropin-releasing factor receptor 2/Corticotropin-releasing factor-binding protein (Homo sapiens, UniProt P24387+Q13324); assay: Dose Response confirmation of uHTS hits for small molecule antagonists of the CRF-binding protein and CRF-R2 receptor complex.; assay type: functional; details: read-out: IC50_Mean
T2 sequence (Q13324 whole entry): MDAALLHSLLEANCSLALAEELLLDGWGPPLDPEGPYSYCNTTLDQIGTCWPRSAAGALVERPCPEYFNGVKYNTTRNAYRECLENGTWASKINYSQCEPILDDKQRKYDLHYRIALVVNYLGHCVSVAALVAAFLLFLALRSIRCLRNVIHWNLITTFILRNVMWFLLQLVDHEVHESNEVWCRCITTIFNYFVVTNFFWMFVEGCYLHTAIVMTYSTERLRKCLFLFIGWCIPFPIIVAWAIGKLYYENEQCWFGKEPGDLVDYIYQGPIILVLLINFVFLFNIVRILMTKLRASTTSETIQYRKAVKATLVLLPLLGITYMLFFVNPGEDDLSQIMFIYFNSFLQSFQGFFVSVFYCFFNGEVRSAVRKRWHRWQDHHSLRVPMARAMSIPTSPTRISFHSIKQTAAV
T2 sequence (P24387 whole entry): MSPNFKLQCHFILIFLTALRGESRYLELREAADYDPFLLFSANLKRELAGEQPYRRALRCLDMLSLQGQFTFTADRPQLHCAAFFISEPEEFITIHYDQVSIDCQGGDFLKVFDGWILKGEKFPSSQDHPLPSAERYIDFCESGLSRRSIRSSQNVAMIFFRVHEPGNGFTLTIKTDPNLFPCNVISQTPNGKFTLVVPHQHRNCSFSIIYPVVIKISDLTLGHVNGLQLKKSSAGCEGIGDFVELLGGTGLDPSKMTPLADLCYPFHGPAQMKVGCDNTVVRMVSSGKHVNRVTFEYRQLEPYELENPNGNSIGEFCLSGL

[4] = target: T2, Corticotropin-releasing factor receptor 2/Corticotropin-releasing factor-binding protein; assay: activators of CRF receptor 2 with binding protein – uHTS hits, confirmation (AID 602473); assay type: functional; details: read-out: EC50_Mean
Cytochrome P450 2D6 = Cytochrome P450 2D6 (Homo sapiens, UniProt P10635);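 further: CYP2D6 member of a cytochrome P450 panel assay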
Streptococcus = assay: Group A Streptococcus viability loss, dose response, counter-screen for streptokinase expression inhibitor project, luminescence, BacTiterGlo (AID 1915); assay type: functional, organism-based;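 further: potency for reduction of bacterial viability or growth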
Streptokinase A = target: T3, Streptokinase A (Streptococcus pyogenes serotype M1, UniProt P10520); assay: S. pyogenes streptokinase expression inhibitors, potency, dose response, plasminogen activation absorbance, OD405 (AID 1914); assay type: functional, Streptococcus pyogenes M1 GAS;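 further: secreted streptokinase activity via plasminogen activation per viability signal from cell pellet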
T3 sequence (P10520 whole entry): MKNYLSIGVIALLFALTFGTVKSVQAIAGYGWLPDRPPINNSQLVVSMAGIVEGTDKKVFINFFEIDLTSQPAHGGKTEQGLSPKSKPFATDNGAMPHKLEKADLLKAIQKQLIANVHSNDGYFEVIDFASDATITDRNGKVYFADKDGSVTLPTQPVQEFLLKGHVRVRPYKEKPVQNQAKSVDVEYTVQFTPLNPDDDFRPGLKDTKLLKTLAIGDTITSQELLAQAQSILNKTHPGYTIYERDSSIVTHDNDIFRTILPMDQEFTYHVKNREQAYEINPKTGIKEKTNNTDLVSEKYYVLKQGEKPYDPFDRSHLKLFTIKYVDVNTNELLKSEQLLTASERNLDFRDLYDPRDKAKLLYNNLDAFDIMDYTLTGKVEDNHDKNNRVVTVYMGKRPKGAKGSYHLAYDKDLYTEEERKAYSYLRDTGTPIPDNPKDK

[5] = tested on: Streptococcus sp. 'group A'; assay: growth inhibition of control SK(-) GAS strain, dose response, counter-screen for streptokinase expression inhibitor project, luminescence, kanamycin, BacTiterGlo, confirmation (AID 1900); assay type: functional, organism-based
Cytochrome P450 2C9 = Cytochrome P450 2C9 (Homo sapiens, UniProt P11712)
Cytochrome P450 2C19 = Cytochrome P450 2C19 (Homo sapiens, UniProt P33261); assay: Cytochrome panel assay with activity outcomes. Panel member name: p450-cyp2c19 Compounds with AC50 equal or less than 10 uM are considered active; assay type: functional; details: read-out: AC50
Cytochrome P450 2C19, sequence (P33261 whole entry): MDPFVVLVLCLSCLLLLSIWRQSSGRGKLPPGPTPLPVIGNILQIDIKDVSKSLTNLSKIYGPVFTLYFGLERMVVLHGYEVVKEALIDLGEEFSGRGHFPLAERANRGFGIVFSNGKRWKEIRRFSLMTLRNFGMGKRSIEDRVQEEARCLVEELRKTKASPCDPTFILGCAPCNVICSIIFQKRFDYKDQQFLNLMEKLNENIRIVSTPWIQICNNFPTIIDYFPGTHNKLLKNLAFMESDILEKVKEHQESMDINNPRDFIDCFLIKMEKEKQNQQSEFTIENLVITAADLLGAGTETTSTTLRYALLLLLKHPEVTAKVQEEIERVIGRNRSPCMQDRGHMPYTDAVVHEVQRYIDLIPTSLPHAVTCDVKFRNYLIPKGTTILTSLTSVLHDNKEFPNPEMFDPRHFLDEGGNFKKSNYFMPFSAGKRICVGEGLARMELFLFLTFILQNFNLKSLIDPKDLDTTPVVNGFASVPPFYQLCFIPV

Cytochrome P450 2D6, sequence (P10635 whole entry): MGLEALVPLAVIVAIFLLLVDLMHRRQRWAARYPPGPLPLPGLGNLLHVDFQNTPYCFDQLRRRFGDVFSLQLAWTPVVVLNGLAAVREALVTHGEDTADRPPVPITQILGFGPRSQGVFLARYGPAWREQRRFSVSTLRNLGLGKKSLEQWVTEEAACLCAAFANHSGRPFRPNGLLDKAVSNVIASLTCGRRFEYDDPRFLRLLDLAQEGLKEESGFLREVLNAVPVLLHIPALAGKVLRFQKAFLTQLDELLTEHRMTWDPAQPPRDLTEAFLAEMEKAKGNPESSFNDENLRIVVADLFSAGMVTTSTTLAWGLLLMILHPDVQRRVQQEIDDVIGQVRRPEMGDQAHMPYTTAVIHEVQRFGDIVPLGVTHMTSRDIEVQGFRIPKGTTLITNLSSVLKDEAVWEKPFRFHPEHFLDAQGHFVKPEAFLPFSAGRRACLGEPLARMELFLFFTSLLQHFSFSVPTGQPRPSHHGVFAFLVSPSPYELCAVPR
Cytochrome P450 3A4, sequence (P08684 whole entry): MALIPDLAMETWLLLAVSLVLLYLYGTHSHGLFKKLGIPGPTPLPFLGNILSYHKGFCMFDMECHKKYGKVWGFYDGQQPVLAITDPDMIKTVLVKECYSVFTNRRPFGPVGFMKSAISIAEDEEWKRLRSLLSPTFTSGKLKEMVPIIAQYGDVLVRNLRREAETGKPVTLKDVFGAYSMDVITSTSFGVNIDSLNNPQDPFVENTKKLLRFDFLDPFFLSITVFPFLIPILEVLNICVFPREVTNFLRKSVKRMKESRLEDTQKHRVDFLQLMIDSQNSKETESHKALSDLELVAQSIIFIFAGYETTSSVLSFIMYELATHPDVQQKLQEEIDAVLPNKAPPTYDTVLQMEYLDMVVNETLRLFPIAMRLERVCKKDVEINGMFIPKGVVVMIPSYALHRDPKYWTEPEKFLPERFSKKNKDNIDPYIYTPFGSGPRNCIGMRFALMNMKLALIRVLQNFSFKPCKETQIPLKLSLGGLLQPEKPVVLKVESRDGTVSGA
Cytochrome P450 2C9, sequence (P11712 whole entry): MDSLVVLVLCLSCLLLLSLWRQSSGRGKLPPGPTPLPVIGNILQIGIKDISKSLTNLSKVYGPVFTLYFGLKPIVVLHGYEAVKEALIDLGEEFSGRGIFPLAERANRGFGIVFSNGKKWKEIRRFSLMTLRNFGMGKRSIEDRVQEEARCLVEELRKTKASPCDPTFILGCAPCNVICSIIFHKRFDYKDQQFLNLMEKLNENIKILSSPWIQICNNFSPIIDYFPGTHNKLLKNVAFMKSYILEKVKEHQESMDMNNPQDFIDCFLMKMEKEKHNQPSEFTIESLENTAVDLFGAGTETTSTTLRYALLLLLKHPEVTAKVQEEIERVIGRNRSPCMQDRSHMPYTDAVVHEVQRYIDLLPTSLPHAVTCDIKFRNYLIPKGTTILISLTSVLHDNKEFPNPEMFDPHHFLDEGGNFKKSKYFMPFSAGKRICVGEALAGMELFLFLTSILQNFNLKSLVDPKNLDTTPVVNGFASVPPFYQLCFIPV

N#CCCn1c(=O)c(-c2cccc(C#N)c2)nc2cnc(N3CCOCC3)nc21
AC50 (Cytochrome P450 1A2): 15.8 µM (inconclusive)
AC50 (Cytochrome P450 3A4): 15.8 µM (inconclusive)

C=CCN1c2ccccc2[C@]23C[C@@H](C(=O)OC)N(C(=O)c4cc(C)oc4C)C2=NC(C(=O)OC)=C(C(=O)OC)[C@H]13
EC50 (H4): > 120 µM (not active)
EC50 [1]: 9.07 µM (active)
EC50 [2]: > 120 µM (not active)

CCOc1ccccc1/C=C(/NC(=O)c1ccccc1)C(=O)NC(C)c1ccccc1 (stereo not drawn)
IC50 [3]: > 47.1 µM (inactive)
EC50 [4]: > 53 µM (inactive)

O=C(Nc1ccn(CCCNCc2ccc3c(c2)OCO3)c(=O)n1)OCc1ccccc1
IC50 [3]: > 47.1 µM (inactive)
EC50 [4]: > 53 µM (inactive)

O=C(NCCSc1ccccc1)c1cncc(Br)c1
EC50 (H4): 9.26 µM (active)
EC50 [1]: 30.1 µM (active)
EC50 [2]: 5.57 µM (active)

O=C(NC1CCCC1)C1CCC(CNS(=O)(=O)c2ccc(F)cc2)CC1 (stereo not drawn)
IC50 [3]: > 47.1 µM (inactive)
EC50 [4]: > 53 µM (inactive)

CCS(=O)(=O)c1ccc(C(=O)Nc2ccccc2)c(Cl)c1Cl
AC50 (Cytochrome P450 1A2): 14.1 µM (inconclusive)
AC50 (Cytochrome P450 2D6): 31.6 µM (inconclusive)

Cc1ccc(C(O)(C(=O)NNc2ccc3ccccc3n2)c2ccc(C)cc2)cc1
EC50 (Streptococcus): 10.9 µM (active)
EC50 (Streptococcus; Streptococcus): 12.1 µM (active)
EC50 (Streptokinase A): > 150 µM (not active) and 8.85 µM (active)
EC50 [5]: 2.55 µM (active)
EC50 ([5]; Streptococcus sp. 'group A'): 3.72 µM (active)

CCOC(=O)c1sc2ncnc(NCC(c3cccs3)N(C)C)c2c1C (stereo not drawn)
EC50 (Streptococcus; Streptococcus): 50.8 µM (active)
EC50 (Streptokinase A): > 150 µM (not active)
EC50 ([5]; Streptococcus sp. 'group A'): 7.15 µM (active)

O=C(c1ccccc1)N1CCN(CC#Cc2ccccc2)CC1
EC50 (H4): 6.67 µM (active)
EC50 [1]: 8.44 µM (active)
EC50 [2]: 9.34 µM (active)

N#C/C(=C\c1ccc(Cl)cc1)c1nc2ccc[nH]c-2n1
EC50 (H4): 44 µM (active)
EC50 [1]: > 120 µM (not active)
EC50 [2]: 14 µM (active)

O=C(Nc1ccc(S(=O)(=O)N2CCOCC2)cc1)c1ccc(Cl)c([N+](=O)[O-])c1
IC50 [3]: > 47.1 µM (inactive)
EC50 [4]: > 53 µM (inactive)

O=c1c2ccccc2nc(-c2ccco2)n1Cc1ccccc1
EC50 [1]: 34.1 µM (active)
EC50 [2]: 8.08 µM (active)

CCOC(=O)[C@@H]1[C@H]2COc3ccccc3[C@H]2N2C(=O)N(c3ccc(C(F)(F)F)cc3)C(=O)[C@]12C
EC50 (Streptococcus; Streptococcus): > 150 µM (not active)
EC50 (Streptokinase A): 17 µM (inconclusive)
EC50 ([5]; Streptococcus sp. 'group A'): 9.78 µM (active)

O=c1c(CCc2ccccc2)nc2cnc(N3CCNCC3)nc2n1Cc1ccc(F)cc1
AC50 (Cytochrome P450 1A2): 10 µM (inconclusive)
AC50 (Cytochrome P450 2D6): 25.1 µM (inconclusive)

Cc1cnn(CCC(=O)NN=C(S)Nc2cccc(Cl)c2)c1
AC50 (Cytochrome P450 1A2): 15.8 µM (inconclusive)
AC50 (Cytochrome P450 2C9): 15.8 µM (inconclusive)
AC50 (Cytochrome P450 2C19): 39.8 µM (inconclusive)

O=C(O)c1ccc(/C=N/Nc2cccc(C(F)(F)F)c2)cc1
IC50 [3]: 43.7 µM (active)
EC50 [4]: > 53 µM (inactive)

CCCCC(C(=O)O)C(C)CC(=O)Nc1nncs1 (stereo not drawn)
IC50 [3]: > 47.1 µM (inactive)
EC50 [4]: > 53 µM (inactive)

O=[N+]([O-])c1cccc(-c2nc(-c3ccccn3)no2)c1
IC50 [3]: > 47.1 µM (inactive)
EC50 [4]: > 53 µM (inactive)
